# Laboratory results taken from ChEMBL document CHEMBL1201862, “PubChem BioAssay data set” (2004).
#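 How tested: cells in 96-well plates exposed to compound for 48 hours at five concentrations. GI50 is the concentration that inhibits growth by half.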 Activity calls are given as the source filed them. Rule as the data show it: active = GI50 up to about 1.1 µM and inactive = higher.
# Tests used:
# Assay in all cases: NCI tumour cell line growth inhibition, 48 h
# HCT-15 = test system: HCT-15
# HT-29 = test system: HT-29
# UACC-257 = test system: UACC-257
# NCI-H226 = test system: NCI-H226
# KM12 = test system: KM12
# COLO 205 = test system: COLO 205
# SK-MEL-5 = test system: SK-MEL-5
# OVCAR-4 = test system: OVCAR-4
# SF-295 = test system: SF-295
# MDA-MB-231 = test system: MDA-MB-231
# LOX IMVI = test system: LOX IMVI
# RPMI-8226 = test system: RPMI-8226
# HOP-62 = test system: HOP-62
# U-251 = test system: U-251
# SK-OV-3 = test system: SK-OV-3
# IGROV-1 = test system: IGROV-1
# DU-145 = test system: DU-145
# OVCAR-5 = test system: OVCAR-5
# RXF 393 = test system: RXF 393
# NCI-H23 = test system: NCI-H23
# ACHN = test system: ACHN
# T47D = test system: T47D
# SNB-75 = test system: SNB-75
# MOLT-4 = test system: MOLT-4
# M14 = test system: M14
# SN12C = test system: SN12C
# OVCAR-8 = test system: OVCAR-8
# Malme-3M = test system: Malme-3M
# BT-549 = test system: BT-549
# SF-268 = test system: SF-268
# MDA-N = test system: MDA-N
# HOP-92 = test system: HOP-92
# Hs-578T = test system: Hs-578T
# MCF7 = test system: MCF7
# SR = test system: SR
# HCC 2998 = test system: HCC 2998
# SK-MEL-2 = test system: SK-MEL-2
# OVCAR-3 = test system: OVCAR-3
# SF-539 = test system: SF-539
# CAKI-1 = test system: CAKI-1
# EKVX = test system: EKVX
# SW-620 = test system: SW-620
# UACC-62 = test system: UACC-62
# MDA-MB-435 = test system: MDA-MB-435
# PC-3 = test system: PC-3
# HCT-116 = test system: HCT-116
# 786-0 = test system: 786-0
# HL-60 = test system: HL-60
# UO-31 = test system: UO-31
# NCI-H522 = test system: NCI-H522
# K562 = test system: K562
# SNB-19 = test system: SNB-19
# TK-10 = test system: TK-10
# CCRF-CEM = test system: CCRF-CEM
# NCI/ADR-RES = test system: NCI/ADR-RES
# A549 = test system: A549
# A498 = test system: A498
# NCI-H460 = test system: NCI-H460
# SK-MEL-28 = test system: SK-MEL-28
smiles,measurement,setting,value
CC(=O)C1(C)CC(C#N)(C#N)C(C#N)=C1N (stereo not given),GI50,HCT-15,> 100 µM
same,GI50,HT-29,> 100 µM (inactive)
same,GI50,UACC-257,> 100 µM (inactive)
same,GI50,NCI-H226,> 100 µM (inactive)
same,GI50,KM12,> 100 µM (inactive)
same,GI50,COLO 205,> 100 µM (inactive)
same,GI50,SK-MEL-5,> 100 µM (inactive)
same,GI50,OVCAR-4,> 100 µM (inactive)
same,GI50,SF-295,> 100 µM (inactive)
same,GI50,MDA-MB-231,> 100 µM (inactive)
same,GI50,LOX IMVI,> 100 µM (inactive)
same,GI50,RPMI-8226,> 100 µM (inactive)
same,GI50,HOP-62,> 100 µM (inactive)
same,GI50,U-251,> 100 µM (inactive)
same,GI50,SK-OV-3,> 100 µM (inactive)
same,GI50,IGROV-1,> 100 µM (inactive)
same,GI50,DU-145,> 100 µM (inactive)
same,GI50,OVCAR-5,> 100 µM (inactive)
same,GI50,RXF 393,> 100 µM (inactive)
same,GI50,NCI-H23,> 100 µM (inactive)
same,GI50,ACHN,> 100 µM (inactive)
same,GI50,T47D,> 100 µM (inactive)
same,GI50,SNB-75,> 100 µM (inactive)
same,GI50,MOLT-4,> 100 µM (inactive)
same,GI50,M14,> 100 µM (inactive)
same,GI50,SN12C,> 100 µM (inactive)
same,GI50,OVCAR-8,> 100 µM (inactive)
same,GI50,Malme-3M,> 100 µM (inactive)
same,GI50,BT-549,> 100 µM (inactive)
same,GI50,SF-268,> 100 µM (inactive)
same,GI50,MDA-N,> 100 µM (inactive)
same,GI50,HOP-92,21 µM (inactive)
same,GI50,Hs-578T,> 100 µM (inactive)
same,GI50,MCF7,> 100 µM (inactive)
same,GI50,SR,56.2 µM (inactive)
same,GI50,HCC 2998,> 100 µM (inactive)
same,GI50,SK-MEL-2,> 100 µM (inactive)
same,GI50,OVCAR-3,> 100 µM (inactive)
same,GI50,SF-539,> 100 µM (inactive)
same,GI50,CAKI-1,66.8 µM (inactive)
same,GI50,EKVX,26.5 µM (inactive)
same,GI50,SW-620,> 100 µM (inactive)
same,GI50,UACC-62,> 100 µM (inactive)
same,GI50,MDA-MB-435,> 100 µM (inactive)
same,GI50,PC-3,> 100 µM (inactive)
same,GI50,HCT-116,> 100 µM (inactive)
same,GI50,786-0,> 100 µM (inactive)
same,GI50,HL-60,> 100 µM (inactive)
same,GI50,UO-31,> 100 µM (inactive)
same,GI50,NCI-H522,> 100 µM (inactive)
same,GI50,K562,> 100 µM (inactive)
same,GI50,SNB-19,> 100 µM (inactive)
same,GI50,TK-10,> 100 µM (inactive)
same,GI50,CCRF-CEM,> 100 µM (inactive)
same,GI50,NCI/ADR-RES,> 100 µM (inactive)
same,GI50,A549,25.1 µM (inactive)
same,GI50,A498,> 100 µM (inactive)
Clc1ccccc1/C=C/c1ccnc2ccccc12,GI50,HCT-15,13.9 µM
same,GI50,HT-29,16 µM (inactive)
same,GI50,UACC-257,15.1 µM (inactive)
same,GI50,NCI-H226,16.8 µM (inactive)
same,GI50,KM12,17.4 µM (inactive)
same,GI50,COLO 205,13.8 µM (inactive)
same,GI50,SK-MEL-5,15.1 µM (inactive)
same,GI50,OVCAR-4,16.1 µM (inactive)
same,GI50,SF-295,15.7 µM (inactive)
same,GI50,MDA-MB-231,22.9 µM (inactive)
same,GI50,LOX IMVI,18.4 µM (inactive)
same,GI50,RPMI-8226,7.8 µM (inactive)
same,GI50,HOP-62,16.9 µM (inactive)
same,GI50,U-251,16.8 µM (inactive)
same,GI50,SK-OV-3,18.5 µM (inactive)
same,GI50,IGROV-1,15.8 µM (inactive)
same,GI50,DU-145,15.7 µM (inactive)
same,GI50,OVCAR-5,19.9 µM (inactive)
same,GI50,RXF 393,16.5 µM (inactive)
same,GI50,NCI-H23,14.1 µM (inactive)
same,GI50,ACHN,16.5 µM (inactive)
same,GI50,T47D,13.6 µM (inactive)
same,GI50,SNB-75,15.6 µM (inactive)
same,GI50,M14,17.3 µM (inactive)
same,GI50,SN12C,16.4 µM (inactive)
same,GI50,OVCAR-8,18.3 µM (inactive)
same,GI50,Malme-3M,19.5 µM (inactive)
same,GI50,BT-549,14.6 µM (inactive)
same,GI50,SF-268,18.9 µM (inactive)
same,GI50,MDA-N,14.6 µM (inactive)
same,GI50,HOP-92,10.2 µM (inactive)
same,GI50,Hs-578T,20.7 µM (inactive)
same,GI50,MCF7,11.6 µM (inactive)
same,GI50,SR,17 µM (inactive)
same,GI50,NCI-H460,16.2 µM (inactive)
same,GI50,HCC 2998,18.2 µM (inactive)
same,GI50,SK-MEL-2,16.6 µM (inactive)
same,GI50,OVCAR-3,14.5 µM (inactive)
same,GI50,SF-539,18.4 µM (inactive)
same,GI50,SK-MEL-28,19.6 µM (inactive)
same,GI50,CAKI-1,16.9 µM (inactive)
same,GI50,EKVX,5.48 µM (inactive)
same,GI50,SW-620,18.4 µM (inactive)
same,GI50,UACC-62,15.2 µM (inactive)
same,GI50,MDA-MB-435,15.8 µM (inactive)
same,GI50,PC-3,16.4 µM (inactive)
same,GI50,HCT-116,15.7 µM (inactive)
same,GI50,786-0,15.8 µM (inactive)
same,GI50,HL-60,19.8 µM (inactive)
same,GI50,UO-31,17.3 µM (inactive)
same,GI50,NCI-H522,14.3 µM (inactive)
same,GI50,K562,15.9 µM (inactive)
same,GI50,SNB-19,16.8 µM (inactive)
same,GI50,TK-10,18 µM (inactive)
same,GI50,CCRF-CEM,20.5 µM (inactive)
same,GI50,NCI/ADR-RES,15.2 µM (inactive)
same,GI50,A549,16.2 µM (inactive)
same,GI50,A498,18.8 µM (inactive)
